From PMC11200626, “In Vitro Biological Activities of Hesperidin-Related Compounds with Different Solubility” (Antioxidants, 2024)
Converted amounts (≈) assume the structure as drawn. Read-outs that look alike come from different tables or passages of the source.

Legend:
[1] = DPPH radical scavenging assay; details: for IC50: 0.2 mM DPPH in ethanol, 37 °C, 30 min, read-out: IC50 representing 50% of DPPH radical scavenging
Description: Measurements of DPPH radical scavenging activity were performed based on the method described by Ratha et al. and Blois, with slight modifications. Briefly, DPPH was dissolved in absolute ethanol to 0.2 mM, and 20 μL of the diluted sample was added to 180 μL of the DPPH solution. The reaction was performed at 37 °C for 30 min to stabilize the color, and the absorbance of the reaction solution was measured at 520 nm using a microplate reader (Epoch2, Bio Tek, Winooski, VT, USA). The DPPH radical scavenging activity was calculated using the following formula. Ascorbic acid was used as a positive control. DPPH radical scavenging activity%=A−B/A×100 where A is the absorbance of the reaction solution without a sample, and B is the absorbance of the reaction solution with a sample.

[2] = β-carotene bleaching assay; details: for IC50: β-carotene/linoleic acid emulsion, 50 °C, 2 h
Description: Measurements of the inhibition activity of β-carotene oxidation were performed using the method described by Wanasundara et al. and Hidalgo et al. with slight modifications. Briefly, a mixture of β-carotene and linoleic acid was prepared by dissolving 0.2 mg of β-carotene in 1 mL of chloroform and mixing this solution with 200 mg of Tween 20 containing 20 mg of linoleic acid. After removing the chloroform from the mixture in a rotary evaporator at 50 °C, 100 mL of deionized water was added to prepare an emulsion. The diluted sample (100 μL) was mixed with 900 μL of the prepared emulsion and the absorbance was measured immediately at 470 nm. Then, after a reaction at 50 °C for 2 h, the absorbance was measured again at 470 nm. Antioxidant activity was evaluated as a percent of oxidation inhibition compared to the untreated group sample. As a positive control, BHT (butylated hydroxytoluene) was used in the experiment. β−Carotene bleaching inhibition activity%=A0−At−(B0−Bt)/A0−At×100 where A0 is the initial absorbance without a sample, At is the final absorbance without a sample, B0 is the initial absorbance with a sample, and Bt is the final absorbance with a sample.

[3] = Water solubility (in words); type: physicochemical
[4] = test system: nitric oxide (NO) in HaCaT cells; assay: Cellular NO levels after UV irradiation; type: cell-based; details: UV 10 mJ/cm^2, 24 h; for NO levels (in words): tested up to 50 μM; for NO production (in words): at 25 μM
Description: Cellular NO levels were determined as an inflammatory intermediate in HaCaT cells. […] Then, cells with or without samples were irradiate with 10 mJ/cm^2 of UV rays at 302 nm using a UV irradiator (UV Crosslinker CL-1000M, UVP, Upland, CA, USA). […] After 24 h incubation, the NO content in the media was measured using an NO assay kit according to the manufacturer’s experimental protocol. The absorbance was measured at 540 nm in the same microplate reader as above.

TNF-α in HaCaT cells = assay: Cellular TNF-α levels after UV irradiation (ELISA); type: cell-based, Human; details: UV 10 mJ/cm^2, 24 h, tested concentrations up to 25 μM
Description: (§1) Cellular levels of TNF-α and IL-6 were measured in HaCaT cells after the addition of various concentrations of HTL, HT, HD, and HDG under UV irradiation. The cell culture and sample treatment conditions for the TNF-α and IL-6 assay were the same as those used in the NO assay. The TNF-α and IL-6 contents in the media were measured, respectively, using commercial detection kits according to the manufacturer’s protocols. The absorbance was measured at 450 nm in the same microplate reader as above.

HaCaT cells = assay: MTT cell viability / cytotoxicity assay; details: 24 h, tested 12.5–200 μM
Description: The keratinocyte HaCaT cell line was obtained from AddexBio (SanDiego, CA, USA). The cells were maintained in DMEM supplemented with 10% FBS and 1% of penicillin/streptomycin under a humidified atmosphere condition of 5% CO2 at 37 °C. The cytotoxicity of HD and the related compounds was assessed by MTT assay. Cells were seeded in 96-well plates at a density of 2 × 10^4 cells/well and incubated for 24 h at 37 °C. Each sample of HTL, HT, HD, and HDG was dissolved in DMSO as a stock solution (0.1 M). […] After incubation for 24 h, the culture medium was removed and MTT solution (100 μL) was added to the well. The mixture was kept at 37 °C for 2 h, then DMSO was added to the reaction mixture and the absorbance at 540 nm was measured in a microplate reader (Epoch2, Bio Tek, Winooski, VT, USA). Cell viability was calculated as a percentage of difference in absorbance between control and test samples.

Candida albicans = assay: MIC, broth micro-dilution with resazurin; type: cell-based, Candida albicans (KCCM 50235); details: read-out: MIC Value
Description: (§2) Antimicrobial capacity was evaluated against some bacteria and yeast known to be major skin resident microorganisms. Staphylococcus aureus (KCCM 11335) was cultivated on TS agar, and Cutibacterium acnes (KCTC 25526) was cultivated on RCM agar in an anaerobic jar (Rec. Jar, Mitsubishi Gas Chemical Co., Tokyo, Japan) with anaerobic gas packs. Candida albicans (KCCM 50235) was cultivated on YM agar, and Malassezia furfur (KCTC 7545) was cultivated on MLN agar. All the microbes were cultivated at 35 °C.
(§3) For the determination of MIC, S. aureus was cultivated in TS broth, and C. acnes was cultivated in RCM medium in an anaerobic jar with gentle shaking. C. albicans was cultivated in an RPMI-1640 medium supplemented with L-glutamine, and M. furfur was cultivated in an RPMI medium supplemented with 2% oleic acid, 0.5% glycerol, 0.5% Tween 60, and 0.2% sodium bicarbonate. All the microbes were cultivated at 35 °C, and the inoculum size for MICs was 5 × 10^5 cells/mL for S. aureus, and 1.5 × 10^5 cells/mL for C. acnes, C. albicans, and M. furfur, respectively.
MIC values were determined by the broth micro-dilution method with some modifications. Briefly, the culture broth of each microorganism was diluted with the same medium. Two-fold serial dilutions of HTL, HT, HD, and HDG ranging from 4000 to 62.5 μg/mL (depending on the microorganism tested) were performed in 96 well plates. After incubation for sufficient growth, the resazurin solution (1 mg/mL, 10 µL) was added to each well and the plate was incubated for 2 h. The MIC value for a microorganism was determined as the lowest concentration of the tested compound that prevented the color change of resazurin (blue to pink).

[5] = n-octanol–water partition coefficient; type: physicochemical; details: 500 μM sample, 20 h at 20 °C, HPLC, mean ± SD (n = 3); for logP at 20 h: n-octanol/water, read-out: Log Po/w (n-octanol–water partition coefficient) (converted)
Description: The hydrophobic/hydrophilic properties were investigated by measuring octanol–water partition coefficients. Octanol–water partition coefficients of the four hesperidin-related compounds were determined by the method described in the previous study. Briefly, samples (500 μM) were mixed in deionized water with an equal volume of n-octanol, and then the mixture was kept for 20 h at 20 °C in the dark to reach partition equilibrium. The concentration of each sample was determined by HPLC, and the partition coefficient (log P) was calculated as the ratio of the concentration in the n-octanol phase to the concentration in the water phase. Partition coefficient LogP=LogCoctanol/[C]water where [C]n-octanol is the concentration of a compound in the n-octanol phase, and [C]water is the concentration of a compound in the water phase.

IL-6 in HaCaT cells = assay: Cellular IL-6 levels after UV irradiation (ELISA); type: cell-based, Human; details: UV 10 mJ/cm^2, 24 h, tested concentrations up to 25 μM
Description: as §1

Cutibacterium acnes = assay: MIC, broth micro-dilution with resazurin; type: cell-based, Cutibacterium acnes (KCTC 25526); details: RCM medium, anaerobic, 35 °C, tested up to 4000 μg/mL
Description: as §2, §3
(§4) MIC values were determined by the broth micro-dilution method with some modifications. Briefly, the culture broth of each microorganism was diluted with the same medium. […] The MIC value for a microorganism was determined as the lowest concentration of the tested compound that prevented the color change of resazurin (blue to pink).

Staphylococcus aureus = assay: MIC, broth micro-dilution with resazurin; type: cell-based, Staphylococcus aureus (KCCM 11335); details: TS broth, 35 °C, tested up to 4000 μg/mL
Description: as §2, §3, §4

Malassezia furfur = assay: MIC, broth micro-dilution with resazurin; type: cell-based, Malassezia furfur (KCTC 7545); details: supplemented RPMI, 35 °C, tested up to 4000 μg/mL
Description: as §2, §3, §4

[6] = RPMI-1640, 35 °C, tested up to 4000 μg/mL

SMILES | DPPH radical scavenging activity ([1]; at a concentration of 50 μM, positive control) [%] | β-carotene bleaching inhibitory activity ([2]; at a concentration of 25 μM, positive control) [%] | IC50 [2] [µM] | water solubility (in words) [3] | NO levels (in words) [4] | effect on TNF-α production (in words) (TNF-α in HaCaT cells) | concentration showing cytotoxic effects / cell death (HaCaT cells) | MIC (Candida albicans) [µg/mL] | logP at 20 h [5] | effect on IL-6 production (in words) (IL-6 in HaCaT cells) | IC50 [1] [µM] | cytotoxicity (in words) (HaCaT cells) | MIC (Candida albicans; [6]) [µg/mL] | NO production (in words) [4] | MIC (Cutibacterium acnes) [µg/mL] | MIC (Staphylococcus aureus) [µg/mL] | MIC (Malassezia furfur) [µg/mL] | Log Po/w (n-octanol–water partition coefficient) [5]
O=C1O[C@H]([C@@H](O)CO)C(O)=C1O [Ascorbic acid, reference compound] | 48.74 |  |  |  |  |  |  |  |  |  |  |  |  |  |  |  |  | 
Cc1cc(C(C)(C)C)c(O)c(C(C)(C)C)c1 [BHT, butylated hydroxytoluene, reference compound] |  | 47.08 |  |  |  |  |  |  |  |  |  |  |  |  |  |  |  | 
COc1ccc(C2CC(=O)c3c(O)cc(O[C@@H]4O[C@H](CO[C@@H]5O[C@@H](C)[C@H](O)[C@@H](O)[C@H]5O)[C@@H](O)[C@H](O)[C@H]4O)cc3O2)cc1O (stereo partly shown) [HD, hesperetin 7-rutinoside] |  |  | 260.8 ± 2.55 | poorly soluble in water | reduced NO levels at higher concentrations | Drastic effects were not observed | 100~200 μM | 2000 (≈ 3280 µM) | 2.13 ± 0.03 | Drastic effects were not observed | 1409 ± 3.43 |  |  |  |  |  |  | 
COc1ccc(C2CC(=O)c3c(O)cc(O[C@@H]4O[C@H](CO[C@@H]5O[C@@H](C)[C@H](O)[C@@H](O)[C@H]5O)[C@@H](O[C@H]5O[C@H](CO)[C@@H](O)[C@H](O)[C@H]5O)[C@H](O)[C@H]4O)cc3O2)cc1O (stereo partly shown) [HDG, hesperidin glucoside] |  |  | 267 ± 2.69 | highly soluble in water | reduced NO levels at higher concentrations | Drastic effects were not observed | > 200 µM |  | -3.45 | Drastic effects were not observed | 1408 ± 3.73 | much less cytotoxicity than the other compounds | 2000 (≈ 2590 µM) |  |  |  |  | 
COc1ccc([C@@H]2CC(=O)c3c(O)cc(O)cc3O2)cc1O [HT, hesperetin] |  |  | 110 ± 3.74 | hardly soluble in water |  |  | 100~200 μM |  | 2.59 |  | 893.1 ± 1.67 |  | 500 (≈ 1650 µM) | markedly decreased | 1000 (≈ 3310 µM) | 2000 (≈ 6620 µM) |  | 
CCCCCCCCCCCC(=O)Oc1cc(O)c2c(c1)OC(c1ccc(OC)c(O)c1)CC2=O (stereo not shown) [HTL, hesperetin laurate] |  |  | 105 ± 2.01 | extremely insoluble in water |  | highest reducing effect |  |  | 7.28 ± 0.06 | highest reducing effect | 899.1 ± 2.52 | induced cell death at relatively low concentrations | 250 (≈ 516 µM) | markedly decreased | 1000 (≈ 2060 µM) | 2000 (≈ 4130 µM) | 1000 (≈ 2060 µM) | 7.08 ± 0.06
